Patent US5639439A, “Gallium dimercaptosuccinate as a novel tumor imaging agent” (Institute of Nuclear Energy Research, Taiwan, priority 1994, dated 1997)

Columns and labels:
glioblastoma (GBM) = experiment: Animal biodistribution in glioblastoma (GBM) tumor-bearing athymic nude mice; assay type: in vivo; conditions: 2 hr. postinjection, tail vein
Method: The six-week old athymic nude mice were obtained from the Experiment Animal Center, Tri-service General Hospital, Taipei, Taiwan. The viable cultured cells, glioblastoma (GBM), were implanted in the upper back leg by intradermal injection. The tissue biodistribution of gallium-67 dimercaptosuccinate was determined following injection (0.15 to 0.2 ml) into tail vein of ketamine anesthetized in tumor-bearing mice. The reanesthetized animals were sacrificed immediately thereafter by decapitation at given time intervals. The organs of interest were subsequently excised, blotted with tissue paper, weighed and the radioactivity was measured. The tissue distribution of gallium-67 dimercaptosuccinate and gallium-67 chloride in tumor-bearing mice are shown in FIG. 1 at 2 hr. postinjection, as much as 7.8% and 1.1% were in GBM and gallium-67 chloride respectively.

tumor = experiment: Gamma camera imaging of tumor-bearing mice; assay type: in vivo, athymic nude mice; conditions: gamma images at 5 min and 15 min
Method: FIG. 2 is a photograph showing the position of tumors in the body of athymic nude mice imaged […] after injection with gallium-67 dimercaptosuccinate.
Imaging was performed using the Elscint gamma camera with medium energy collimator, and a SIMIS-IV nuclear medicine computer for data processing.

Row | Compound | tissue distribution in GBM (glioblastoma (GBM)) [%] | in vivo stability (tumor)
1 | [Cl][Ga]([Cl])[Cl] [gallium-67 chloride, reference compound] | 1.1 | 
2 | gallium-67 dimercaptosuccinate | 7.8 | stable in vivo
